The assay concerns the target T1, BACE-1 enzyme (Homo sapiens, UniProt P56817).
T1 construct: purchased R & D Systems 931AS
Kind of assay: BACE Fluorescence Resonance Energy Transfer (FRET) Assay. It is filed as biochemical. The settings on record: pH 4-4.5, 30 min pre-incubation, about 1.5 hours reaction. An outline of the steps: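 Fluorescence (ex 540, em 585 nm) after ~1.5 h room-temperature cleavage of a quenched rhodamine peptide tracks BACE-1 activity. Enzyme and compound first sit 30 min in pH 4-4.5 acetate buffer with CHAPS, Triton X-100, EDTA, 7.5% DMSO. Values given as IC50 or % inhibition.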

T1 sequence (P56817 46-457 limits assumed): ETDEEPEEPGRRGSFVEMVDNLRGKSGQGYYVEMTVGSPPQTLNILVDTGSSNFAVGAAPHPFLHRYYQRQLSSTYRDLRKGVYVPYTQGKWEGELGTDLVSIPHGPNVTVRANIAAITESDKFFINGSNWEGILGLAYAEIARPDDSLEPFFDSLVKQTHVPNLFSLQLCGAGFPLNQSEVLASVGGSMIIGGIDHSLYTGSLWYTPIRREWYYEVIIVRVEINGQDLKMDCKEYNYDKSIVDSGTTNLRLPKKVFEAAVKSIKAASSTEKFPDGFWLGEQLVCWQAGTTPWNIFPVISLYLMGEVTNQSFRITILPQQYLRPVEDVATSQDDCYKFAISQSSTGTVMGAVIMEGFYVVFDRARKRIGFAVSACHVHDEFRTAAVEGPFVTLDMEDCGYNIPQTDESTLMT

Usually IC50 stands for the point on the concentration scale where inhibition reaches its midpoint. A low value points to inhibition by little substance. In the case of `O=C(Nc1nc2cc(-c3cc(F)cc(Cl)c3)ccc2[nH]1)c1cn2c(N3CCC(O)CC3)cccc2n1` [Example 158, 5-(4-Hydroxy-piperidin-1-yl)-imidazo[1,2-a]pyridine-2-carboxylic acid [5-(3-chloro-5-fluoro-phenyl)-1H-benzoimidazol-2-yl]-amide], the IC50 was 0.1 µM.
The same measure for `CO[C@H]1CCN(c2cc(F)cn3cc(C(=O)Nc4nc5cc(-c6cc(F)cc(Cl)c6)ccc5[nH]4)nc23)C1` [Example 159, 6-Fluoro-8-((S)-3-methoxy-pyrrolidin-1-yl)-imidazo[1,2-a]pyridine-2-carboxylic acid [5-(3-chloro-5-fluoro-phenyl)-1H-benzoimidazol-2-yl]-amide]: 0.34 µM; for `CO[C@@H]1CCN(c2cc(F)cn3cc(C(=O)Nc4nc5cc(-c6cc(F)cc(Cl)c6)ccc5[nH]4)nc23)C1` [Example 160, 6-Fluoro-8-((R)-3-methoxy-pyrrolidin-1-yl)-imidazo[1,2-a]pyridine-2-carboxylic acid [5-(3-chloro-5-fluoro-phenyl)-1H-benzoimidazol-2-yl]-amide]: 0.75 µM.
The same measure for `CC(C)CNCc1cccc2nc(C(=O)Nc3nc4cc(-c5cccc(C(F)(F)F)c5)ccc4[nH]3)cn12` [Example 164, 5-(Isobutylamino-methyl)-imidazo[1,2-a]pyridine-2-carboxylic acid [5-(3-trifluoromethyl-phenyl)-1H-benzoimidazol-2-yl]-amide]: 0.3 µM.
In the case of `O=C(Nc1nc2cc(-c3cccc(C(F)(F)F)c3)ccc2[nH]1)c1cn2c(CN3CCCCC3)cccc2n1` [Example 166, 5-Piperidin-1-ylmethyl-imidazo[1,2-a]pyridine-2-carboxylic acid [5-(3-trifluoromethyl-phenyl)-1H-benzoimidazol-2-yl]-amide] it was 0.79 µM; in that of `CCN(CC)Cc1cccc2nc(C(=O)Nc3nc4cc(-c5cccc(C(F)(F)F)c5)ccc4[nH]3)cn12` [Example 168, 5-Diethylaminomethyl-imidazo[1,2-a]pyridine-2-carboxylic acid [5-(3-trifluoromethyl-phenyl)-1H-benzoimidazol-2-yl]-amide], 0.65 µM; in that of `O=C(Nc1nc2cc(-c3cccc(C(F)(F)F)c3)ccc2[nH]1)c1cn2c(CNCc3ccccc3)cccc2n1` [Example 173, 5-(Benzylamino-methyl)-imidazo[1,2-a]pyridine-2-carboxylic acid [5-(3-trifluoromethyl-phenyl)-1H-benzoimidazol-2-yl]-amide], 0.57 µM.
`O=C(Nc1nc2cc(-c3cccc(C(F)(F)F)c3)ccc2[nH]1)c1cn2c(CN3CCCC3)cccc2n1` [Example 175, 5-Pyrrolidin-1-ylmethyl-imidazo[1,2-a]pyridine-2-carboxylic acid [5-(3-trifluoromethyl-phenyl)-1H-benzoimidazol-2-yl]-amide] returned an IC50 of 0.49 µM.
`CC(C)(C)NCc1ccc2nc(C(=O)Nc3nc4cc(-c5cccc(C(F)(F)F)c5)ccc4[nH]3)cn2c1` [Example 178, 6-(Tert-Butylamino-methyl)-imidazo[1,2-a]pyridine-2-carboxylic acid [5-(3-trifluoromethyl-phenyl)-1H-benzoimidazol-2-yl]-amide]: it took 0.43 µM to reach half-maximal inhibition (IC50).
In the case of `O=C(Nc1nc2cc(-c3cccc(C(F)(F)F)c3)ccc2[nH]1)c1cn2cc(CNC3CCCC3)ccc2n1` [Example 180, 6-Cyclopentylaminomethyl-imidazo[1,2-a]pyridine-2-carboxylic acid [5-(3-trifluoromethyl-phenyl)-1H-benzoimidazol-2-yl]-amide] it was 0.51 µM; in that of `CN(C)Cc1ccc2nc(C(=O)Nc3nc4cc(-c5cccc(C(F)(F)F)c5)ccc4[nH]3)cn2c1` [Example 181, 6-Dimethylaminomethyl-imidazo[1,2-a]pyridine-2-carboxylic acid [5-(3-trifluoromethyl-phenyl)-1H-benzoimidazol-2-yl]-amide], 0.8 µM; in that of `CN1CCN(Cc2ccc3nc(C(=O)Nc4nc5cc(-c6cccc(C(F)(F)F)c6)ccc5[nH]4)cn3c2)CC1` [Example 183, 6-(4-Methyl-piperazin-1-ylmethyl)-imidazo[1,2-a]pyridine-2-carboxylic acid [5-(3-trifluoromethyl-phenyl)-1H-benzoimidazol-2-yl]-amide], 0.56 µM.
Regarding `O=C(Nc1nc2cc(-c3cccc(C(F)(F)F)c3)ccc2[nH]1)c1cn2cc(CNCc3ccccc3)ccc2n1` [Example 186, 6-(Benzylamino-methyl)-imidazo[1,2-a]pyridine-2-carboxylic acid [5-(3-trifluoromethyl-phenyl)-1H-benzoimidazol-2-yl]-amide], 0.43 µM corresponded to half-maximal inhibition (IC50).
The compound `CCNCc1ccc2nc(C(=O)Nc3nc4cc(-c5cccc(C(F)(F)F)c5)ccc4[nH]3)cn2c1` [Example 187, 6-Ethylaminomethyl-imidazo[1,2-a]pyridine-2-carboxylic acid [5-(3-trifluoromethyl-phenyl)-1H-benzoimidazol-2-yl]-amide] displayed an IC50 of 0.51 µM.
The same measure for `CCN(C)Cc1cccc2nc(C(=O)Nc3nc4cc(-c5cccc(C(F)(F)F)c5)ccc4[nH]3)cn12` [Example 189, 5-[(Ethyl-methyl-amino)-methyl]-imidazo[1,2-a]pyridine-2-carboxylic acid [5-(3-trifluoromethyl-phenyl)-1H-benzoimidazol-2-yl]-amide]: 0.95 µM.
The same measure for `CN(Cc1ccccc1)Cc1cccc2nc(C(=O)Nc3nc4cc(-c5cccc(C(F)(F)F)c5)ccc4[nH]3)cn12` [Example 190, 5-[(Benzyl-methyl-amino)-methyl]-imidazo[1,2-a]pyridine-2-carboxylic acid [5-(3-trifluoromethyl-phenyl)-1H-benzoimidazol-2-yl]-amide]: 1.28 µM; for `CC(C)CN(C)Cc1cccc2nc(C(=O)Nc3nc4cc(-c5cccc(C(F)(F)F)c5)ccc4[nH]3)cn12` [Example 191, 5-[(Isobutyl-methyl-amino)-methyl]-imidazo[1,2-a]pyridine-2-carboxylic acid [5-(3-trifluoromethyl-phenyl)-1H-benzoimidazol-2-yl]-amide]: 1.53 µM; for `CC(C)(C)NCc1cccn2cc(C(=O)Nc3nc4cc(-c5cccc(C(F)(F)F)c5)ccc4[nH]3)nc12` [Example 193, 8-(tert-Butylamino-methyl)-imidazo[1,2-a]pyridine-2-carboxylic acid [5-(3-trifluoromethyl-phenyl)-1H-benzoimidazol-2-yl]-amide]: 1.65 µM.
In the case of `CCN(C)Cc1cccn2cc(C(=O)Nc3nc4cc(-c5cccc(C(F)(F)F)c5)ccc4[nH]3)nc12` [Example 195, 8-[(Ethyl-methyl-amino)-methyl]-imidazo[1,2-a]pyridine-2-carboxylic acid [5-(3-trifluoromethyl-phenyl)-1H-benzoimidazol-2-yl]-amide] it was 1.08 µM.
`O=C(Nc1nc2cc(-c3cccc(C(F)(F)F)c3)ccc2[nH]1)c1cn2cccc(CN3CCOCC3)c2n1` [Example 198, 8-Morpholin-4-ylmethyl-imidazo[1,2-a]pyridine-2-carboxylic acid [5-(3-trifluoromethyl-phenyl)-1H-benzoimidazol-2-yl]-amide] displayed an IC50 of 1.14 µM.
The same measure for `O=C(Nc1nc2cc(-c3cccc(C(F)(F)F)c3)ccc2[nH]1)c1cn2ccc(CO)cc2n1` [Example 200, 7-Hydroxymethyl-imidazo[1,2-a]pyridine-2-carboxylic acid [5-(3-trifluoromethyl-phenyl)-1H-benzoimidazol-2-yl]-amide]: 0.46 µM.

For the origin of these results see US20120101093A1, “SUBSTITUTED IMIDAZO[1,2-A]PYRIDINE DERIVATIVES, PHARMACEUTICAL COMPOSITIONS, AND METHODS OF USE AS BETA-SECRETASE INHIBITORS” (HIGH POINT PHARMACEUTICALS, LLC, priority 2009, published 2012).
